Read-outs that look alike come from different tables or passages of the source.
Legend:
[1] = target: biotinylated Avi-POLθ[2-894] (Homo sapiens (Human), UniProt O75417); test: POLθ ATPase assay (ADP-Glo); settings: n=2, read-out: Biochemical ATPase ADPGlo IC50
DLD1 BRCA2 (−/−) cells = test: 7-day cell viability assay (CellTiter-Glo), DLD1 BRCA2 (−/−); format: cell-based, human; settings: Homo sapiens, DLD-1, 168 h, n=2, read-out: Viability IC50 (uM) DLD1 BRCA2 null
Summary of the method: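 7-day growth assay in DLD1 cells with or without BRCA2; seeding densities chosen to keep log-linear growth. Compound: 10 uM top, 3-fold, 9 points. Endpoint: CTG ATP luminescence at RT.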

DLD1 WT cells = test: 7-day cell viability assay (CellTiter-Glo), DLD1 parental (WT); format: cell-based, human; settings: Homo sapiens, DLD-1, 168 h, n=2

Chain of biotinylated Avi-POLθ[2-894] (O75417 2-894): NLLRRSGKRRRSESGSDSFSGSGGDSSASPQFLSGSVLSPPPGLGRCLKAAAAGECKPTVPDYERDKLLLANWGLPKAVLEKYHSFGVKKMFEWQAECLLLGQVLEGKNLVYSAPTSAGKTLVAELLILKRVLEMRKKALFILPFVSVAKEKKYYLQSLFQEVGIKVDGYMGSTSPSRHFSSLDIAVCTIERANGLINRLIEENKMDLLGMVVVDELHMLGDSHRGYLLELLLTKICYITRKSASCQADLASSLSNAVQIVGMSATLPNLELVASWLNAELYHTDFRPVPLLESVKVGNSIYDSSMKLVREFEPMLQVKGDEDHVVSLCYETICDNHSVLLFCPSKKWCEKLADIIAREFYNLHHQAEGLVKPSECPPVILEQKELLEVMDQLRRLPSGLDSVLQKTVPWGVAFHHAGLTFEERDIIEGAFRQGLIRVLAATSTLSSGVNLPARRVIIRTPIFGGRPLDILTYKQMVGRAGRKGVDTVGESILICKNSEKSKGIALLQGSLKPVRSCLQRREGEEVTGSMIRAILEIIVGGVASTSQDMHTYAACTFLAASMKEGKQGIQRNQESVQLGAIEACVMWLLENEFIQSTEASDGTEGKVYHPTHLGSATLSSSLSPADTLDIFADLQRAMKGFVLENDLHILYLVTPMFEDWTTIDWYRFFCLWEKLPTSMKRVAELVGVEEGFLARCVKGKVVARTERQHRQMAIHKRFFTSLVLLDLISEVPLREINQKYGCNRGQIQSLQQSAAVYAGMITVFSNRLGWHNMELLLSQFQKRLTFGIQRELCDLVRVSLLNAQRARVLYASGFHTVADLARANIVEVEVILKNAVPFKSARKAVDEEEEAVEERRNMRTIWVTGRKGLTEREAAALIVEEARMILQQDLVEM

Row | Compound | IC50 [1] [µM] | IC50 (DLD1 BRCA2 (−/−) cells; 7-day viability) [µM] | IC50 ([1]; POLθ ATPase, ADP-Glo) [µM] | IC50 (DLD1 BRCA2 (−/−) cells; 7-day CellTiter-Glo) [µM] | IC50 (DLD1 WT cells; 7-day viability) [µM] | IC50 (DLD1 WT cells; 7-day CellTiter-Glo) [µM]
1 | COc1ccccc1-c1cc(C)ncc1C(=O)Nc1nc2c(s1)CN(C(=O)C1CC1)CC2 | ≥ 0.9 | ≥ 2 |  |  | 0.5 to 2 | 
2 | COc1cnc(Cl)cc1-c1cc(C)ncc1C(=O)Nc1nc2c(s1)CN(C(=O)c1ncc(C(F)(F)F)cn1)C2 [Example 37, 2′-chloro-5′-methoxy-6-methyl-N-(5-(5-(trifluoromethyl)pyrimidine-2-carbonyl)-5,6-dihydro-4H-pyrrolo[3,4-d]thiazol-2-yl)-[4,4′-bipyridine]-3-carboxamide] | 0.001 to 0.015 | 0.001 to 0.1 |  |  | ≥ 10 | 
3 | COc1cn2cncc2cc1-c1cc(C)ncc1C(=O)Nc1nc2c(s1)CN(C(=O)c1c(Cl)cnn1C)C2 | 0.001 to 0.015 | 0.1 to 0.25 |  |  | ≥ 10 | 
4 | COc1ccc(C#N)cc1-c1cc(C)ncc1C(=O)Nc1nc2c(s1)CC(Nc1ccccc1)CC2 (stereo not drawn) | 0.001 to 0.015 | 0.1 to 0.25 |  |  | ≥ 10 | 
5 | COc1cnc(Cl)cc1-c1cc(C)ncc1C(=O)Nc1nc2c(s1)CN(C(=O)c1nn(C)c(C)c1Cl)C2 [Example 74, 2′-chloro-N-(5-(4-chloro-1,5-dimethyl-1H-pyrazole-3-carbonyl)-5,6-dihydro-4H-pyrrolo[3,4-d]thiazol-2-yl)-5′-methoxy-6-methyl-[4,4′-bipyridine]-3-carboxamide] | 0.001 to 0.015 | 0.001 to 0.1 |  |  | 0.001 to 0.5 | 
6 | COc1ccc(C#N)cc1-c1cc(C)ncc1C(=O)Nc1nc2c(s1)CN(C(=O)c1c(Cl)cnn1C)C2 [Example 123] | 0.001 to 0.015 | 0.001 to 0.1 |  |  | ≥ 10 | 
7 | COc1cnc(Cl)cc1-c1cc(C)ncc1C(=O)Nc1nc2c(s1)CN(C(=O)C1CC3(CC(O)C3)C1)C2 (stereo not drawn) [Example 148] | 0.001 to 0.015 | 0.1 to 0.25 |  |  | ≥ 10 | 
8 | COc1ccc(C#N)cc1-c1cc(C)ncc1C(=O)Nc1nc2c(s1)CN(C(=O)c1cccc(OC)c1Cl)C2 |  |  | 0.001 to 0.015 | 0.001 to 0.1 |  | ≥ 10
9 | COc1ccccc1-c1cc(C)ncc1C(=O)Nc1nc2c(s1)CN(C(=O)C1CC(OC(F)F)C1)C2 (racemic) | 0.001 to 0.015 | 0.25 to 0.5 |  |  | ≥ 10 | 
10 | COc1nc(OC)c(-c2cc(C)ncc2C(=O)Nc2nc3c(s2)CN(C(=O)c2ccc(C(F)(F)F)nc2OC)C3)cc1Cl [Example 1036, 5-chloro-2,6-dimethoxy-N-(5-(2-methoxy-6-(trifluoromethyl)nicotinoyl)-5,6-dihydro-4H-pyrrolo[3,4-d]thiazol-2-yl)-6′-methyl-[3,4′-bipyridine]-3′-carboxamide] |  |  | 0.001 to 0.015 | 0.001 to 0.1 |  | ≥ 10
11 | COc1cnc(Cl)cc1-c1cc(C)ncc1C(=O)Nc1nc2c(s1)CN(C(=O)C1CC3(C1)CC(F)(F)C3)C2 [Example 64, 2′-chloro-N-(5-(6,6-difluorospiro[3.3]heptane-2-carbonyl)-5,6-dihydro-4H-pyrrolo[3,4-d]thiazol-2-yl)-5′-methoxy-6-methyl-[4,4′-bipyridine]-3-carboxamide] | 0.001 to 0.015 | 0.001 to 0.1 |  |  | 5 to 10 | 
12 | COc1ccc(C#N)cc1-c1cc(C)ncc1C(=O)Nc1nc2c(s1)CN(S(=O)(=O)c1ccccn1)C2 [Example 308] | 0.015 to 0.05 | ≥ 2 |  |  | ≥ 10 | 
13 | COc1cnc(Cl)cc1-c1cc(C)ncc1C(=O)Nc1nc2c(s1)C(C)N(C(=O)c1ccc(C(F)(F)F)nc1OC)C2 (stereo not drawn) [Example 1040, 2′-chloro-5′-methoxy-N-(S-(2-methoxy-6-(trifluoromethyl)nicotinoyl)-6-methyl-5,6-dihydro-4H-pyrrolo[3,4-d]thiazol-2-yl)-6-methyl-[4,4′-bipyridine]-3-carboxamide] |  |  | 0.001 to 0.015 | 0.001 to 0.1 |  | ≥ 10

Second part, led by results:

Row | IC50 [1] [µM] | IC50 (DLD1 BRCA2 (−/−) cells; 7-day viability) [µM] | IC50 ([1]; POLθ ATPase, ADP-Glo) [µM] | IC50 (DLD1 BRCA2 (−/−) cells; 7-day CellTiter-Glo) [µM] | Compound | IC50 (DLD1 WT cells; 7-day viability) [µM] | IC50 (DLD1 WT cells; 7-day CellTiter-Glo) [µM]
14 | 0.001 to 0.015 | 0.001 to 0.1 |  |  | COc1cnc(Cl)cc1-c1cc(C)ncc1C(=O)Nc1nc2c(s1)CN(C(=O)c1ccc(C(F)(F)F)nc1)C2 [Example 42, 2′-chloro-5′-methoxy-6-methyl-N-(5-(6-(trifluoromethyl)nicotinoyl)-5,6-dihydro-4H-pyrrolo[3,4-d]thiazol-2-yl)-[4,4′-bipyridine]-3-carboxamide] | ≥ 10 | 
15 | 0.001 to 0.015 | 0.001 to 0.1 |  |  | COc1cnc(Cl)cc1-c1cc(C)ncc1C(=O)Nc1nc2c(s1)CN(C(=O)c1c(OC)cnn1C)C2 [Example 146] | ≥ 10 | 
16 | 0.001 to 0.015 | 0.001 to 0.1 |  |  | COc1cnc(Cl)cc1-c1cc(C)ncc1C(=O)Nc1nc2c(s1)CN(C(=O)c1cccc(C(F)(F)F)n1)C2 [Example 21, 2′-chloro-5′-methoxy-6-methyl-N-(5-(6-(trifluoromethyl)picolinoyl)-5,6-dihydro-4H-pyrrolo[3,4-d]thiazol-2-yl)-[4,4′-bipyridine]-3-carboxamide] | ≥ 10 | 
17 | 0.001 to 0.015 | 0.001 to 0.1 |  |  | COc1cnc(Cl)cc1-c1cc(C)ncc1C(=O)Nc1nc2c(s1)CN(C(=O)c1cc3n(n1)CCC3)C2 [Example 63, 2′-chloro-N-(5-(5,6-dihydro-4H-pyrrolo[1,2-b]pyrazole-2-carbonyl)-5,6-dihydro-4H-pyrrolo[3,4-d]thiazol-2-yl)-5′-methoxy-6-methyl-[4,4′-bipyridine]-3-carboxamide] | 5 to 10 | 
18 |  |  | 0.001 to 0.015 | 0.001 to 0.1 | COc1cnc(Cl)cc1-c1cc(C)ncc1C(=O)Nc1nc2c(s1)CN(C(=O)c1cccc(Cl)c1OC)C2 |  | 5 to 10
19 | 0.001 to 0.015 | 0.001 to 0.1 |  |  | COc1cnc(Cl)cc1-c1cc(C)ncc1C(=O)Nc1nc2c(s1)CN(C(=O)c1nccc(Cl)c1OC)C2 [Example 399, 2′-chloro-N-(5-(4-chloro-3-methoxypicolinoyl)-5,6-dihydro-4H-pyrrolo[3,4-d]thiazol-2-yl)-5′-methoxy-6-methyl-[4,4′-bipyridine]-3-carboxamide] | ≥ 10 | 
20 | 0.001 to 0.015 | 0.001 to 0.1 |  |  | COc1ccc(C(=O)N2Cc3nc(NC(=O)c4cnc(C)cc4-c4cc(Cl)ncc4OC)sc3C2)nc1 [Example 121] | ≥ 10 | 
21 | 0.001 to 0.015 | 0.001 to 0.1 |  |  | COc1cnc(Cl)cc1-c1cc(C)ncc1C(=O)Nc1nc2c(s1)CN(C(=O)c1cccc(Cl)n1)C2 [Example 7, 2′-chloro-N-(5-(6-chloropicolinoyl)-5,6-dihydro-4H-pyrrolo[3,4-d]thiazol-2-yl)-5′-methoxy-6-methyl-[4,4′-bipyridine]-3-carboxamide] | 2 to 5 | 
22 |  |  | 0.001 to 0.015 | 0.001 to 0.1 | CCn1ncc(Cl)c1C(=O)N1Cc2nc(NC(=O)c3cnc(C)cc3-c3cc(Cl)ncc3OC)sc2C1 [Example 393, 2′-chloro-N-(5-(4-chloro-1-ethyl-1H-pyrazole-5-carbonyl)-5,6-dihydro-4H-pyrrolo[3,4-d]thiazol-2-yl)-5′-methoxy-6-methyl-[4,4′-bipyridine]-3-carboxamide] |  | ≥ 10
23 | 0.001 to 0.015 | 0.001 to 0.1 |  |  | COc1cnc(Cl)cc1-c1cc(C)ncc1C(=O)Nc1nc2c(s1)CN(C(=O)c1ccc(OC(F)(F)F)cn1)C2 [Example 394, 2′-chloro-5′-methoxy-6-methyl-N-(5-(5-(trifluoromethoxy)picolinoyl)-5,6-dihydro-4H-pyrrolo[3,4-d]thiazol-2-yl)-[4,4′-bipyridine]-3-carboxamide] | ≥ 10 | 
24 |  |  | 0.001 to 0.015 | 0.001 to 0.1 | COc1cnc(Cl)cc1-c1cc(C)ncc1C(=O)Nc1nc2c(s1)CN(C(=O)c1ccc(OC)c(C(F)F)n1)C2 |  | ≥ 10
25 | 0.001 to 0.015 | 0.1 to 0.25 |  |  | COc1cnc(Cl)cc1-c1cc(C)ncc1C(=O)Nc1nc2c(s1)CN(C(=O)c1ccccn1)C2 | ≥ 10 | 
26 |  |  | 0.001 to 0.015 | 0.001 to 0.1 | COc1cnc(Cl)cc1-c1cc(C)ncc1C(=O)Nc1nc2c(s1)CN(C(=O)c1ccc(F)c(C(F)F)c1)C2 |  | 5 to 10
27 | 0.001 to 0.015 | 0.001 to 0.1 |  |  | COc1cnc(Cl)cc1-c1cc(C)ncc1C(=O)Nc1nc2c(s1)CN(C(=O)c1ccc(C(F)(F)F)nn1)C2 [Example 14, 2′-chloro-5′-methoxy-6-methyl-N-(5-(6-(trifluoromethyl)pyridazine-3-carbonyl)-5,6-dihydro-4H-pyrrolo[3,4-d]thiazol-2-yl)-[4,4′-bipyridine]-3-carboxamide] | ≥ 10 | 
28 | 0.001 to 0.015 | 0.001 to 0.1 |  |  | COc1cnc(Cl)cc1-c1cc(C)ncc1C(=O)Nc1nc2c(s1)CN(C(=O)c1cnccc1Cl)C2 [Example 19, 2′-chloro-N-(5-(4-chloronicotinoyl)-5,6-dihydro-4H-pyrrolo[3,4-d]thiazol-2-yl)-5′-methoxy-6-methyl-[4,4′-bipyridine]-3-carboxamide] | ≥ 10 | 
29 | 0.001 to 0.015 | 0.001 to 0.1 |  |  | COc1cnc(Cl)cc1-c1cc(C)ncc1C(=O)Nc1nc2c(s1)CN(C(=O)c1ccc(Cl)cn1)C2 [Example 11, 2′-chloro-N-(5-(5-chloropicolinoyl)-5,6-dihydro-4H-pyrrolo[3,4-d]thiazol-2-yl)-5′-methoxy-6-methyl-[4,4′-bipyridine]-3-carboxamide] | 2 to 5 | 
30 | 0.001 to 0.015 | 0.001 to 0.1 |  |  | CCc1cc(C(=O)N2Cc3nc(NC(=O)c4cnc(C)cc4-c4cc(Cl)ncc4OC)sc3C2)nn1C [Example 58, 2′-chloro-N-(5-(5-ethyl-1-methyl-1H-pyrazole-3-carbonyl)-5,6-dihydro-4H-pyrrolo[3,4-d]thiazol-2-yl)-5′-methoxy-6-methyl-[4,4′-bipyridine]-3-carboxamide] | ≥ 10 | 
31 | 0.001 to 0.015 | 0.1 to 0.25 |  |  | COc1cnc(Cl)cc1-c1cc(C)ncc1C(=O)Nc1nc2c(s1)CN(C(=O)c1ncc(C(F)F)cc1Cl)C2 | ≥ 10 | 

Source: patent US20250230171A1 (MOMA Therapeutics, Inc., priority 2023, published 2025)
